Measured values: publication PMC8816891, “High-throughput cell-based assays for identifying antagonists of multiple smoking-associated human nicotinic acetylcholine receptor subtypes” (SLAS discovery : advancing life sciences R & D, 2021)
Where a name gives a salt, the structure may show the parent alone. Read-outs that look alike come from different tables or passages of the source.

Assays:
human α4β2-nAChR [1] = biological target: T1, human α4β2-nAChR (Homo sapiens, UniProt P17787+P43681); assay: cell-based
T1 sequence (P43681 29-627 limits assumed): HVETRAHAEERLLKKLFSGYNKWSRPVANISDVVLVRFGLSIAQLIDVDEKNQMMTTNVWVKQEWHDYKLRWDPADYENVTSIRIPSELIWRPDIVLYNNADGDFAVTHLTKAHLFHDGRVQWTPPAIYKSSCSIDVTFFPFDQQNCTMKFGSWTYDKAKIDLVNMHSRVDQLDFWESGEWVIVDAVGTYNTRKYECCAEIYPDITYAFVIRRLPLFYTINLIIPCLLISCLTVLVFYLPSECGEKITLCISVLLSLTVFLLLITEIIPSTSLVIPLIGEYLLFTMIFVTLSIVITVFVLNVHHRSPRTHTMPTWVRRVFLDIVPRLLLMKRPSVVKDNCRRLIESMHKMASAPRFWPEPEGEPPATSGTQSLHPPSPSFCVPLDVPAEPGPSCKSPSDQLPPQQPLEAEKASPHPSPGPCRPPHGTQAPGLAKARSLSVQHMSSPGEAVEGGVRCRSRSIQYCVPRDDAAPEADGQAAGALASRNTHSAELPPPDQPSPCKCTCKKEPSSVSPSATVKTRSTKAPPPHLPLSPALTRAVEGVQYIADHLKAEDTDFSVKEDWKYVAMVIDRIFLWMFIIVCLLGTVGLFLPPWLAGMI
T1 sequence (P17787 26-502): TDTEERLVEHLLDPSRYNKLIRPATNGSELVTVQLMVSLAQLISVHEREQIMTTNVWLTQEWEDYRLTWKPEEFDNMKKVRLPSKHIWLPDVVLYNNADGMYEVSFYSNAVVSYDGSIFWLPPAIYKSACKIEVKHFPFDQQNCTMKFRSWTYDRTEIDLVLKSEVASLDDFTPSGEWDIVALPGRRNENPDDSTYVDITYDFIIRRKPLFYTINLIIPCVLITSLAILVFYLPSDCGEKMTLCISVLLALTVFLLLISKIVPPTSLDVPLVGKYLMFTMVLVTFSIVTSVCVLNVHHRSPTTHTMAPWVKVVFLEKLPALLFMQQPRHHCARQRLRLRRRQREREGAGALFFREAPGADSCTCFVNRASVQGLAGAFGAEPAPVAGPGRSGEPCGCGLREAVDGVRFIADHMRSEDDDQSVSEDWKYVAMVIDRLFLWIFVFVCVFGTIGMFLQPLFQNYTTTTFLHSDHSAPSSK
Procedure: As described in that prior publication, this SH-EP1-α6/3 β2β3-nAChR monoclone is maintained in medium supplemented with zeocin (0.25 mg/mL), hygromycin (0.13 mg/mL biologically active) and G418 (0.6 mg/mL) to maintain positive selection of transfectants, and cultured at low passage numbers (1–40 from our frozen stocks) to ensure stable expression of the phenotype.
For the SH-EP1-α4 β2-nAChR and SH-EP1-α6/3 β2β3-nAChR lines: cells were seeded into 384-well black tissue culture plates (Corning #3712) at 7000 cells per well in 50 μl assay media using a microfill (BioTek). The plates were incubated overnight at 37 °C to allow cells to adhere to the plate, then transferred to 29 °C and incubated for ~72h to maximize receptor expression. On the compound addition day, medium was aspirated and plates washed one time with wash buffer (1x HBSS with 20 mM HEPES adjusted to pH 7.4) using a BioTek ELx405 Select CW Plate Washer. Twenty-five microliters of 0.5x FLIPR Membrane Potential dye (Molecular Devices, R8034; prepared in wash buffer) was added to the plates using a microfill. The plates were further incubated at 29 °C for 60 min and background fluorescence was measured (Envision, Perkin Elmer). […] Plates were then incubated at room temperature for 20 min and fluorescence was measured again. Background fluorescence was subtracted from the final fluorescence read during data analysis.
EC50 values were calculated using nonlinear regression analysis via GraphPad Prism 7 (GraphPad software, Inc.).
After subtracting background fluorescence from fluorescent read for each plate well, the raw data were converted into a list and all plates were appended by run. For analysis purposes, each data point was annotated with well coordinate, well type, compound identifier, titer plate barcode, run identifier, date, and protocol information. Basic statistics and QC criteria were calculated within TIBCO Spotfire (v7.0.0). Basic statistics of control wells were examined by well type, by run, plate, and row/column to monitor run-to-run and plate-to-plate variation, and to exclude possible experimental issues such as striping. […] Concordance between replicates was assessed using linear regression. For each test well, the percentage of inhibition was obtained by subtracting the normalized fluorescent signal (NFS), expressed as a percentage, from 100%.

human α6/3β2β3-nAChR [2] = biological target: T2, human α6/3β2β3-nAChR (Homo sapiens, UniProt P17787+P32297+Q05901+Q15825); assay: membrane potential dye assay, SH-EP1-α6/3β2β3-nAChR cells; type: cell-based
T2 construct: expressed in transfected cells
T2 sequence (Q15825+P32297 fused with the stated changes): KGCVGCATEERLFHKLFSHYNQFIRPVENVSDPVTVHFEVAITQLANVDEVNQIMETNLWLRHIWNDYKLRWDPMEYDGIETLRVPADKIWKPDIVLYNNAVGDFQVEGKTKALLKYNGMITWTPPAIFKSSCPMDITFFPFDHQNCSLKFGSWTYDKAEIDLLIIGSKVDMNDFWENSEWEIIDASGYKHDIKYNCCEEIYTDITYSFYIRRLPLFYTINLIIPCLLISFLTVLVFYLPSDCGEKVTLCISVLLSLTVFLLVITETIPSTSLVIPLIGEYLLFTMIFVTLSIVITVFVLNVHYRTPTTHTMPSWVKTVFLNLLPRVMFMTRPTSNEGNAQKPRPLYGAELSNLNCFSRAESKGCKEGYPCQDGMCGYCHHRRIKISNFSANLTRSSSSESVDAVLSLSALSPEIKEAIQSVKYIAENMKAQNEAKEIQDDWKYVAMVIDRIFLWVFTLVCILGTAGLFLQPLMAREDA
T2 sequence (P17787 26-502): as the sequence (P17787 26-502) above
T2 sequence (Q05901 22-458): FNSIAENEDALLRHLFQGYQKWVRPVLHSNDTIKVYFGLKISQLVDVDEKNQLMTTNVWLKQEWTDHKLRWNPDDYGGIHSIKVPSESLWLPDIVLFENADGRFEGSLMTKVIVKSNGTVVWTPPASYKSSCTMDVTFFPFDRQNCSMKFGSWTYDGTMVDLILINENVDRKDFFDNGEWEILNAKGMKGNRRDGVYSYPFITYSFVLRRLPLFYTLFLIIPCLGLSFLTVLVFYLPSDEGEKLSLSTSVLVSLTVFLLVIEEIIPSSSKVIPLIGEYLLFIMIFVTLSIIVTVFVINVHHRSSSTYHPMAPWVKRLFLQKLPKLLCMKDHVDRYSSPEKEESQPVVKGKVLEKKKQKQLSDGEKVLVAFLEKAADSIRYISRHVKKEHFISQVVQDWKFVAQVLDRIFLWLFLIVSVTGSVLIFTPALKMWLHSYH
Procedure: (§1) Concordance between replicates was assessed using linear regression.

human α3β4-nAChR [3] = biological target: T3, human α3β4-nAChR (Homo sapiens, UniProt P30926+P32297); assay: 86Rb+ efflux orthogonal assay, SH-EP1-α3β4-nAChR cells; type: cell-based; settings: 10 μM; validated = reduced specific efflux by > 3x SD vs no-drug control
T3 construct: expressed in transfected cells
T3 sequence (P32297 32-505): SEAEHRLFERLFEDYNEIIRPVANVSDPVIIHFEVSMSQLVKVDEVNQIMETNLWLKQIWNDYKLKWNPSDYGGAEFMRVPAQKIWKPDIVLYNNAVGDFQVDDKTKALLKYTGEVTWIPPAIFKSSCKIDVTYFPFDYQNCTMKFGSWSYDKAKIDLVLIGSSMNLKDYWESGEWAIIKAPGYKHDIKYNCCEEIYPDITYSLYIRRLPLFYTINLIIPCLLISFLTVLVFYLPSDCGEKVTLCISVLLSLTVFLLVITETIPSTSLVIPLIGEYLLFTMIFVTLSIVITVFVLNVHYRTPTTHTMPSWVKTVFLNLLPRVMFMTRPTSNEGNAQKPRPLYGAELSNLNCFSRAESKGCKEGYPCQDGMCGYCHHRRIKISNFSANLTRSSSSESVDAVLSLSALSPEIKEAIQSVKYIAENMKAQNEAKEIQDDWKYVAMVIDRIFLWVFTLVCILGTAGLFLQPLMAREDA
T3 sequence (P30926 22-498): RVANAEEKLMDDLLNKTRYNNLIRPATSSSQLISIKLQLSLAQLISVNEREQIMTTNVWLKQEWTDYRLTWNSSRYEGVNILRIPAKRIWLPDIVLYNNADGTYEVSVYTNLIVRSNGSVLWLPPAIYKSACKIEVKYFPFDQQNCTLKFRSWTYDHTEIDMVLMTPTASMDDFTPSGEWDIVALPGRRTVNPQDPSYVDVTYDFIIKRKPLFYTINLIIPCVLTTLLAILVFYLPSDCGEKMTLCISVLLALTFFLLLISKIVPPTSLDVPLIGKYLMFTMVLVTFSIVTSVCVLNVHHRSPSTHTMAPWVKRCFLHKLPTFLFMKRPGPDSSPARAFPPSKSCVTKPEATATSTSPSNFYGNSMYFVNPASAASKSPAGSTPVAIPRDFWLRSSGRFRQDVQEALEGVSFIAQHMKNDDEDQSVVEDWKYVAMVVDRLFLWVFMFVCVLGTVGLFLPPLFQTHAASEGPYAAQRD
Procedure: (§2) Cells were grown to confluence in 24-well plates (Falcon; 500 μl volume per well). The evening before each assay was to be performed, the medium was removed and replaced with 250 μl per well of complete medium supplemented with ~350,000 cpm of ^86Rb^+ (NEN; counted at 40% efficiency using Cerenkov counting and the Packard TriCarb 1900 Liquid Scintillation Analyzer). This allowed overnight loading of cells with tracer.
(§3) Determinations of antagonist efficacy were performed in triplicate in each plate, and each antagonist was tested in three separate experiments. […] Specific efflux was then taken as the difference in control samples between total and non-specific ^86Rb^+ efflux, and was used to calculate the efficacy of blocking specific efflux by the test compounds.
(§4) Fig. 4. Validation and specificity testing of HTS antagonist hits using an orthogonal assay. […] (A) All plates were normalized to internal maximum and minimum controls, as described in the Materials and Methods section. […] Activity measured at α3β4-nAChR is shown with blue symbols, that at α4β2-nAChR with red symbols, and that at α6/3 β2 β3-nAChR with green symbols. Dashed lines are color-matched to data symbols and designate the 3 X SD thresholds above the no-antagonist controls, used to determine validation of antagonist activity in each of the assays.

human α6/3β2β3-nAChR [4] = biological target: T2, human α6/3β2β3-nAChR; assay: 86Rb+ efflux orthogonal assay, SH-EP1-α6/3β2β3-nAChR cells; type: cell-based; settings: 10 μM; validated = reduced specific efflux by > 3x SD vs no-drug control
Procedure: as §2, §3, §4

human α4β2-nAChR [5] = biological target: T1, human α4β2-nAChR; assay: 86Rb+ efflux orthogonal assay, SH-EP1-α4β2-nAChR cells; type: cell-based; design: expressed in transfected cells; settings: 10 μM; validated = reduced specific efflux by > 3x SD vs no-drug control
Procedure: Cells were grown to confluence in 24-well plates (Falcon; 500 μl volume per well). The evening before each assay was to be performed, the medium was removed and replaced with 250 μl per well of complete medium supplemented with ~350,000 cpm of ^86Rb^+ (NEN; counted at 40% efficiency using Cerenkov counting and the Packard TriCarb 1900 Liquid Scintillation Analyzer). This allowed overnight loading of cells with tracer. The assay was based on a proven, routine ^86Rb^+ efflux assay “flip-plate” protocol that includes 1500 nM atropine to exclude possible contributions of muscarinic acetylcholine receptors, with test compound or control solutions applied for 30 s.
Determinations of antagonist efficacy were performed in triplicate in each plate, and each antagonist was tested in three separate experiments. […] Both determinations of non-specific efflux were equivalent. Specific efflux was then taken as the difference in control samples between total and non-specific ^86Rb^+ efflux, and was used to calculate the efficacy of blocking specific efflux by the test compounds.
Fig. 4. Validation and specificity testing of HTS antagonist hits using an orthogonal assay. […] Activity measured at α3β4-nAChR is shown with blue symbols, that at α4β2-nAChR with red symbols, and that at α6/3 β2 β3-nAChR with green symbols. […]

human α3β4-nAChR [6] = biological target: T3, human α3β4-nAChR; assay: membrane potential dye assay, SH-EP1-α3β4-nAChR cells; type: cell-based
Procedure: as §1

[7] = IC50, 5 min incubation, in the presence of 500nM of nicotine
[8] = IC50, 10 min incubation, in the presence of 500nM of nicotine
[9] = IC50, 20 min incubation, in the presence of 500nM of nicotine
[10] = IC50, 25 min incubation, in the presence of 500nM of nicotine
[11] = average IC50 across all time-points, averaged over 5-30 min reads, nicotine at EC90
[12] = read-out: pre-determined EC90 value

SMILES | IC50 (human α4β2-nAChR [1]; IC50) [nM] | IC50 (human α4β2-nAChR [1]; [7]) [nM] | IC50 (human α4β2-nAChR [1]; [8]) [nM] | IC50 (human α4β2-nAChR [1]; [9]) [nM] | IC50 (human α4β2-nAChR [1]; [10]) [nM] | IC50 (human α4β2-nAChR [1]; [11]) [nM] | also measured
C[N+](C)(C)CCCCCC[N+](C)(C)C [hexamethonium] | 71600 | 98300 | 100000 | 47900 | 38900 | 65800 ± 28800 | IC50 (human α4β2-nAChR [1]; IC50, 30 min incubation, in the presence of 500nM of nicotine): 37400 nM
CNC1(C)C2CCC(C2)C1(C)C (stereo not drawn) [mecamylamine] | 896 | 2250 | 1090 | 919 | 983 | 1210 ± 520 | IC50 (human α6/3β2β3-nAChR [2]; in the presence of 500 nM nicotine (EC90), read-out: IC50 (α6/3β2β3), Fig. 2D): 1670 nM; IC50 (human α6/3β2β3-nAChR [2]; nicotine at EC90, read-out: average IC50, comparison across subtypes): 1670 nM; antagonist hit identified in HTS and validated by 86Rb+ efflux (human α3β4-nAChR [3]): identified and validated as a hit; antagonist hit identified in HTS and validated by 86Rb+ efflux (human α6/3β2β3-nAChR [4]): identified and validated as a hit; IC50 (human α4β2-nAChR [1]; IC50 (α4β2), Fig. 2D, in the presence of 500 nM nicotine (EC90), subtype comparison): 537 nM; IC50 (human α4β2-nAChR [1]; average IC50, comparison across subtypes, nicotine at EC90): 540 nM; antagonist hit identified in HTS and validated by 86Rb+ efflux (human α4β2-nAChR [5]): identified and validated as a hit
CN1CCC[C@H]1c1cccnc1 [nicotine, (−)-nicotine] |  |  |  |  |  |  | EC90 (human α3β4-nAChR [6]; [12]): 20000 nM; EC90 (human α6/3β2β3-nAChR [2]; [12]): 500 nM; EC90 (human α4β2-nAChR [1]; [12]): 500 nM
CNCCC=C1c2ccccc2CCc2ccccc21 [nortriptyline hydrochloride] |  |  |  |  |  |  | antagonist hit call in pilot screen (human α3β4-nAChR [6]; test compound 10 μM with 20 μM nicotine (EC90), hit = signal below mean - 3 SD): identified as a hit
